Assay results: patent publication US20030050306A1, “Novel heteroaryl derivatives, their preparation and use” (H. Lundbeck A/S, priority 1999, published 2003)
Where a name gives a salt, the structure may show the parent alone.

| melting point | SMILES |
| --- | --- |
| 188 to 191 °C (dec.) | Clc1cccc(Cl)c1SCCN1CCN(c2cccc3c2OCCO3)CC1 (as salt: oxalate) [Compound 3d, 1-[2-(2,6-Dichloro-phenylsulfanyl)-ethyl]-4-(2,3-dihydro-benzo[1,4]dioxin-5-yl)-piperazine] |
| 152 to 154 °C | N#Cc1ccc(N2CCN(CCCOc3ccc(F)cc3Br)CC2)c2c1OCCO2 (as salt: oxalate) [Compound 6b, 8-{4-[3-(2-Bromo-4-fluoro-phenoxy)-propyl]-piperazin-1-yl}-2,3-dihydro-benzo[1,4]dioxine-5-carbonitrile] |
| 96 to 98 °C | N#Cc1ccc(N2CCN(CCCOc3ccccc3Cl)CC2)c2c1OCCO2 (as salt: oxalate) [Compound 6c, 8-{4-[3-(2-Chloro-phenoxy)-propyl]-piperazin-1-yl}-2,3-dihydro-benzo[1,4]dioxine-5-carbonitrile] |
